Measurements as given in patent US11440913B2, “Aminoimidazopyridazines as kinase inhibitors” (BRISTOL-MYERS SQUIBB COMPANY, priority 2017, dated 2022).
Counter-ions that a name gives are not always drawn. Like-named read-outs stand apart in the source and are kept apart here.

Key:
[1] = biological target: His-GST-TVMV-hRIPK1(1-324) (Homo sapiens (Human), UniProt Q13546); test: RIPK1 HTRF Binding Assay; settings: HTRF binding, 1 h at rt; read-out: RIPK1 (IC50)
Outline: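 HTRF probe-displacement binding: 1 nM His-GST-TVMV-hRIPK1(1-324) (baculovirus construct), 90.6 nM probe, 0.2 nM anti-GST-Tb in 20 mM HEPES, 10 mM MgCl2, 0.015% Brij-35, 4 mM DTT, 0.05 mg/mL BSA. Incubated 1 h at rt; FRET 520/495 nm ratio, inhibition relative to DMSO-only wells.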

[2] = test system: MLKL phosphorylation in HT29-L23 human colorectal adenocarcinoma cells; test: MLKL Phosphorylation High-Content Assay; format: cell-based; settings: 6 h, necroptosis induced with TNFα, SMAC mimetic and Z-VAD, read-out: pMLKL (IC50)
Outline: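 HT29-L23 cells pretreated 30 min at 37 °C with compound (6.25 to 0.106 μM final), then necroptosis induced with TNFα 35 ng/mL, SMAC mimetic 700 nM and Z-VAD 140 nM for 6 h. Fixed cells immunostained for MLKL pS358 and imaged; IC50 and Ymax from 4-parameter logistic fit.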

His-GST-TVMV-hRIPK1(1-324), sequence (Q13546 1-324): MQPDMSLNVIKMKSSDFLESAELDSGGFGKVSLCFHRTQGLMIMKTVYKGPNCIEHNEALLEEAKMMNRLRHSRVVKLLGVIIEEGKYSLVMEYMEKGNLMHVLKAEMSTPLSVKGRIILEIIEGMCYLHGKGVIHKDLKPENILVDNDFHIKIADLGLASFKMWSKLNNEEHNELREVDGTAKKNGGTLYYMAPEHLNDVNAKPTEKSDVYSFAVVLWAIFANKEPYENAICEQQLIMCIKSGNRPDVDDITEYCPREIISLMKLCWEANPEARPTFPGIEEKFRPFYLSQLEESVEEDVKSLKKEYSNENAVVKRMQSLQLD

[2H]C([2H])([2H])Oc1ncc(-c2ccc3nc(NC(C)=O)cn3n2)cc1C(=O)NCc1cc(OC)ccc1F [Example 40, 5-{2-acetamidoimidazo[1,2-b]pyridazin-6-yl}-N-[(2-fluoro-5-methoxyphenyl)methyl]-2-(D3)methoxypyridine-3-carboxamide]
IC50 [1]: 125 nM | IC50 ([2]; Homo sapiens): 265 nM

[2H]C([2H])([2H])Oc1ncc(-c2ccc3nc(NC(C)=O)cn3n2)cc1C(=O)N[C@@H](C)c1cc(OC(F)(F)F)ccc1F [Example 41, 5-{2-acetamidoimidazo[1,2-b]pyridazin-6-yl}-N-[(1S)-1-[2-fluoro-5-(trifluoromethoxy)phenyl]ethyl]-2-(D3)methoxypyridine-3-carboxamide]
IC50 [1]: 63 nM | IC50 ([2]; Homo sapiens): 78 nM

[2H]C([2H])([2H])Oc1ncc(-c2ccc3nc(NC(C)=O)cn3n2)cc1C(=O)NCc1c(F)cccc1OCC(F)(F)F [Example 42, 5-{2-acetamidoimidazo[1,2-b]pyridazin-6-yl}-N-{[2-fluoro-6-(2,2,2-trifluoroethoxy)phenyl]methyl}-2-(D3)methoxypyridine-3-carboxamide]
IC50 [1]: 11 nM | IC50 ([2]; Homo sapiens): 13 nM

[2H]C([2H])([2H])Oc1ncc(-c2ccc3nc(NC(C)=O)cn3n2)cc1C(=O)NCc1cc(F)cc(F)c1OC1CCCOC1 (stereo not drawn) [Example 43, N-{[3,5-difluoro-2-(oxan-3-yloxy)phenyl]methyl}-5-{2-acetamidoimidazo[1,2-b]pyridazin-6-yl}-2-(D3)methoxypyridine-3-carboxamide]
IC50 [1]: 10 nM | IC50 ([2]; Homo sapiens): 28 nM

[2H]C([2H])([2H])Oc1ncc(-c2ccc3nc(NC(C)=O)cn3n2)cc1C(=O)NCc1cc(F)cc(F)c1O[C@@H]1CCOC1 [Example 44, N-({3,5-difluoro-2-[(3R)-oxolan-3-yloxy]phenyl}methyl)-5-{2-acetamidoimidazo[1,2-b]pyridazin-6-yl}-2-(D3)methoxypyridine-3-carboxamide]
IC50 [1]: 17 nM | IC50 ([2]; Homo sapiens): 71 nM

[2H]C([2H])([2H])Oc1ncc(-c2ccc3nc(NC(C)=O)cn3n2)cc1C(=O)NC([2H])([2H])c1cc(F)cc(F)c1OC1CCOCC1 [Example 46, N-{[3,5-difluoro-2-(oxan-4-yloxy)phenyl](deutero)methyl}-5-{2-acetamidoimidazo[1,2-b]pyridazin-6-yl}-2-(D3)methoxypyridine-3-carboxamide]
IC50 [1]: 2 nM | IC50 ([2]; Homo sapiens): 1 nM

[2H]C([2H])([2H])Oc1ncc(-c2ccc3nc(NC(C)=O)cn3n2)cc1C(=O)N[C@H](C)c1cc(OC(F)(F)F)ccc1F [Example 47, 5-{2-acetamidoimidazo[1,2-b]pyridazin-6-yl}-N-[(1R)-1-[2-fluoro-5-(trifluoromethoxy)phenyl]ethyl]-2-(D3)methoxypyridine-3-carboxamide]
IC50 [1]: 161 nM | IC50 ([2]; Homo sapiens): 85 nM

[2H]C([2H])([2H])Oc1ncc(-c2ccc3nc(NC(C)=O)cn3n2)cc1C(=O)NCc1cc(F)cc(F)c1OC1COC1 [Example 48, N-{[3,5-difluoro-2-(oxetan-3-yloxy)phenyl]methyl}-5-{2-acetamidoimidazo[1,2-b]pyridazin-6-yl}-2-(D3)methoxypyridine-3-carboxamide]
IC50 [1]: 10 nM | IC50 ([2]; Homo sapiens): 87 nM

[2H]C([2H])([2H])Oc1ncc(-c2ccc3nc(NC(C)=O)cn3n2)cc1C(=O)NCc1cc(F)cc(F)c1OC([2H])([2H])C1CC1 [Example 49, N-({2-[cyclopropyl(deutero)methoxy]-3,5-difluorophenyl}methyl)-5-{2-acetamidoimidazo[1,2-b]pyridazin-6-yl}-2-(D3)methoxypyridine-3-carboxamide]
IC50 [1]: 3 nM | IC50 ([2]; Homo sapiens): 5 nM

[2H]C([2H])([2H])Oc1ncc(-c2ccc3nc(NC(C)=O)cn3n2)cc1C(=O)NCc1cc(F)cc(F)c1OC1CCOCC1 [Example 50, N-{[3,5-difluoro-2-(oxan-4-yloxy)phenyl]methyl}-5-{2-acetamidoimidazo[1,2-b]pyridazin-6-yl}-2-(D3)methoxypyridine-3-carboxamide]
IC50 [1]: 2 nM | IC50 ([2]; Homo sapiens): 2 nM

[2H]C([2H])([2H])Oc1ncc(-c2ccc3nc(NC(C)=O)cn3n2)cc1C(=O)NC(C)c1cc(C(F)(F)F)ccc1F (stereo not drawn) [Example 51, 5-{2-acetamidoimidazo[1,2-b]pyridazin-6-yl}-N-{1-[2-fluoro-5-(trifluoromethyl)phenyl]ethyl}-2-(D3)methoxypyridine-3-carboxamide]
IC50 [1]: 63 nM | IC50 ([2]; Homo sapiens): 200 nM

[2H]C([2H])([2H])Oc1ncc(-c2ccc3nc(NC(C)=O)cn3n2)cc1C(=O)NC(C)c1cc(C(F)(F)F)ccc1F (stereo not drawn) [Example 52, 5-{2-acetamidoimidazo[1,2-b]pyridazin-6-yl}-N-{1-[2-fluoro-5-(trifluoromethyl)phenyl]ethyl}-2-(D3)methoxypyridine-3-carboxamide]
IC50 [1]: 65 nM | IC50 [2]: 185 nM

[2H]C([2H])([2H])Oc1ncc(-c2ccc3nc(NC(C)=O)cn3n2)cc1C(=O)NCc1ccc(F)c(F)c1OCC1CC1 [Example 53, N-{[2-(cyclopropylmethoxy)-3,4-difluorophenyl]methyl}-5-{2-acetamidoimidazo[1,2-b]pyridazin-6-yl}-2-(D3)methoxypyridine-3-carboxamide]
IC50 [1]: 62 nM | IC50 ([2]; Homo sapiens): 81 nM

[2H]C([2H])([2H])Oc1ncc(-c2ccc3nc(NC(C)=O)cn3n2)cc1C(=O)NC(C)c1ccccc1OC(F)(F)F (stereo not drawn) [Example 54, 5-{2-acetamidoimidazo[1,2-b]pyridazin-6-yl}-2-(D3)methoxy-N-{1-[2-(trifluoromethoxy)phenyl]eth-yl}pyridine-3-carboxamide]
IC50 [1]: 5 nM | IC50 ([2]; Homo sapiens): 24 nM

[2H]C([2H])([2H])Oc1ncc(-c2ccc3nc(NC(C)=O)cn3n2)cc1C(=O)NCc1cc(F)cc(F)c1OCC1CC1 [Example 55, N-{[2-(cyclopropylmethoxy)-3,5-difluorophenyl]methyl}-5-{2-acetamidoimidazo[1,2-b]pyridazin-6-yl}-2-(D3)methoxypyridine-3-carboxamide, TFA]
IC50 [1]: 1 nM | IC50 ([2]; Homo sapiens): 3 nM

[2H]C([2H])([2H])Oc1ncc(-c2ccc3nc(NC(C)=O)cn3n2)cc1C(=O)NCc1cc(OCC2CC2)ccc1F [Example 56, N-{[5-(cyclopropylmethoxy)-2-fluorophenyl]methyl}-5-{2-acetamidoimidazo[1,2-b]pyri-dazin-6-yl}-2-(D3)methoxypyridine-3-carboxamide, TFA]
IC50 [1]: 13 nM | IC50 ([2]; Homo sapiens): 67 nM

[2H]C([2H])([2H])Oc1ncc(-c2ccc3nc(NC(C)=O)cn3n2)cc1C(=O)NC(C)c1ccccc1OC(F)(F)F (stereo not drawn) [Example 57, 5-{2-acetamidoimidazo[1,2-b]pyridazin-6-yl}-2-(D3)methoxy-N-{1-[2-(trifluoromethoxy)phenyl]eth-yl}pyridine-3-carboxamide]
IC50 [1]: 10 nM | IC50 [2]: 25 nM

[2H]C([2H])([2H])Oc1ncc(-c2ccc3nc(NC(C)=O)cn3n2)cc1C(=O)NCc1cc(OC(F)(F)F)ccc1F [Example 58, 5-{2-acetamidoimidazo[1,2-b]pyridazin-6-yl}-N-{[2-fluoro-5-(trifluoromethoxy)phenyl]methyl}-2-(D3)methoxypyridine-3-carboxamide]
IC50 [1]: 14 nM | IC50 ([2]; Homo sapiens): 21 nM

CC(=O)Nc1cn2nc(-c3cc(C(=O)NCc4cc(F)cc(F)c4OC4CCCOC4)c(C)nc3C)ccc2n1 (stereo not drawn) [Example 59, N-{[3,5-difluoro-2-(oxan-3-yloxy)phenyl]methyl}-5-{2-acetamidoimidazo[1,2-b]pyridazin-6-yl}-2,6-dimethylpyridine-3-carboxamide]
IC50 [1]: 12 nM | IC50 ([2]; Homo sapiens): 17 nM

CC(=O)Nc1cn2nc(-c3cc(C(=O)NCc4cc(F)cc(F)c4O[C@H]4CCOC4)c(C)nc3C)ccc2n1 [Example 60, N-({3,5-difluoro-2-[(3S)-oxolan-3-yloxy]phenyl}methyl)-5-{2-acetamidoimidazo[1,2-b]pyridazin-6-yl}-2,6-dimethylpyridine-3-carboxamide]
IC50 [1]: 6 nM | IC50 ([2]; Homo sapiens): 26 nM

CC(=O)Nc1cn2nc(-c3cc(C(=O)NCc4cc(F)cc(F)c4O[C@@H]4CCOC4)c(C)nc3C)ccc2n1 [Example 61, N-({3,5-difluoro-2-[(3R)-oxolan-3-yloxy]phenyl}methyl)-5-{2-acetamidoimidazo[1,2-b]pyridazin-6-yl}-2,6-dimethylpyridine-3-carboxamide]
IC50 [1]: 33 nM | IC50 ([2]; Homo sapiens): 258 nM

CC(=O)Nc1cn2nc(-c3cc(C(=O)NCc4cc(F)cc(F)c4OC4CCOC(C)C4)c(C)nc3C)ccc2n1 (stereo not drawn) [Example 62, N-({3,5-difluoro-2-[(2-methyloxan-4-yl)oxy]phenyl}methyl)-5-{2-acetamidoimidazo[1,2-b]pyridazin-6-yl}-2,6-dimethylpyridine-3-carboxamide]
IC50 [1]: 11 nM | IC50 ([2]; Homo sapiens): 29 nM

CC(=O)Nc1cn2nc(-c3cc(C(=O)NCc4cccc(F)c4OC4C[C@@H](C)O[C@@H](C)C4)c(C)nc3C)ccc2n1 (stereo partly drawn) [Example 63, N-[(2-{[(2R,6S)-2,6-dimethyloxan-4-yl]oxy}-3-fluorophenyl)methyl]-5-{2-acetamidoimidazo[1,2-b]pyridazin-6-yl}-2,6-dimethylpyridine-3-carboxamide]
IC50 [1]: 149 nM | IC50 ([2]; Homo sapiens): 340 nM

CC(=O)Nc1cn2nc(-c3cc(C(=O)NCc4cc(F)cc(F)c4OC4CC(C)OC(C)C4)c(C)nc3C)ccc2n1 (stereo not drawn) [Example 64, N-({2-[(2,6-dimethyloxan-4-yl)oxy]-3,5-difluorophenyl}methyl)-5-{2-acetamidoimidazo[1,2-b]pyridazin-6-yl}-2,6-dimethylpyridine-3-carboxamide]
IC50 [1]: 49 nM | IC50 ([2]; Homo sapiens): 45 nM
